Reference: ChEMBL document CHEMBL2157932, “Synthesis and pharmacological evaluation of carbamic acid 1-phenyl-3-(4-phenyl-piperazine-1-yl)-propyl ester derivatives as new analgesic agents” (Bioorg Med Chem Lett, 2012)
pIC50: −log10 of the molar value.

Key:
[1] = molecular target: T1, 5-hydroxytryptamine receptor 1A (Rattus norvegicus, UniProt P19327); experiment: Displacement of [3H]-8-OH-DPAT from 5HT1A receptor in rat hippocampus; type: tissue-based
T1 sequence (P19327 whole entry): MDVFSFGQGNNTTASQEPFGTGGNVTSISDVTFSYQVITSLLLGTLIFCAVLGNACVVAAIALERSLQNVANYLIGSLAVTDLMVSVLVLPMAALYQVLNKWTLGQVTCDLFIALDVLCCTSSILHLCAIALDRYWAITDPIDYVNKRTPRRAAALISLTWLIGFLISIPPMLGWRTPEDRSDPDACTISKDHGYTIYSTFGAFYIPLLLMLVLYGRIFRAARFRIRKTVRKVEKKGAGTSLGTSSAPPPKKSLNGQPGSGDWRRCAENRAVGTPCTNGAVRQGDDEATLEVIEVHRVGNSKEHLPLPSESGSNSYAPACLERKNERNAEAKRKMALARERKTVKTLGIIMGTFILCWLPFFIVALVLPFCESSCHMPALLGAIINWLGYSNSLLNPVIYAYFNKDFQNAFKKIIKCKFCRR

[2] = molecular target: 5-hydroxytryptamine receptor 2A (Rattus norvegicus, UniProt P14842); experiment: Displacement of [3H]-ketanserin from 5HT2A receptor in rat cortical membrane; type: cell membranes
5-hydroxytryptamine receptor 2A, sequence (P14842 whole entry): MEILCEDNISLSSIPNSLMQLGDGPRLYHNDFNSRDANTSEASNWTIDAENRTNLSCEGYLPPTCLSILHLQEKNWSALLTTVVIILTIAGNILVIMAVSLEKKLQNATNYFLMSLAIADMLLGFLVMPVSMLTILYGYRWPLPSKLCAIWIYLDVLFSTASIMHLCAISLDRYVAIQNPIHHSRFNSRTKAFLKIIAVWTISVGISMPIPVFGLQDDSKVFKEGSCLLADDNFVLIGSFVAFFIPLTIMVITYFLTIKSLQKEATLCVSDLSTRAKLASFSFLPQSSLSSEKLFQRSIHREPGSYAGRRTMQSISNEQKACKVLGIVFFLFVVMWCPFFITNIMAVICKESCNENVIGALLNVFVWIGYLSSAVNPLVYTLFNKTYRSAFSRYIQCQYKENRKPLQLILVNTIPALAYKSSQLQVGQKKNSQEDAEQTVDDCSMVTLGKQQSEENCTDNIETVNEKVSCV

[3] = molecular target: 5-hydroxytryptamine receptor 2A (Rattus norvegicus) (UniProt P14842); experiment: Displacement of [3H]-ketanserin from 5HT2A receptor in rat cortical membrane at 1 uM; type: cell membranes
5-hydroxytryptamine receptor 2A (Rattus norvegicus), sequence (P14842 whole entry): as above

Mus musculus [4] = experiment: Analgesic activity in po dosed mouse assessed as inhibition of acetic acid-induced writhing response administered 0.5 to 1 hr before acetic acid challenge; type: functional
[5] = Half life in human liver microsomes by LC/MS/MS; type: ADME, Microsome
[6] = molecular target: T2, 5-hydroxytryptamine receptor 1A (Rattus norvegicus) (UniProt P19327); experiment: Displacement of [3H]-8-OH-DPAT from 5HT1A receptor in rat hippocampus at 1 uM; type: tissue-based
T2 sequence (whole entry): T1 sequence (P19327 whole entry)

Mus musculus [7] = experiment: Analgesic activity in mouse assessed as inhibition of acetic acid-induced writhing response at 10 mg/kg, po administered 0.5 to 1 hr before acetic acid challenge; type: functional
[8] = Neurotoxicity in po dosed mouse by rotarod test; type: toxicity, organism-based; conditions: in vivo
Mus musculus [9] = experiment: Analgesic activity in ip dosed mouse assessed as inhibition of acetic acid-induced writhing response administered 0.5 to 1 hr before acetic acid challenge; type: functional
Mus musculus [10] = experiment: Analgesic activity in mouse assessed as inhibition of acetic acid-induced writhing response at 10 mg/kg, ip administered 0.5 to 1 hr before acetic acid challenge; type: functional; conditions: route intraperitoneal
[11] = Neurotoxicity in ip dosed mouse by rotarod test; type: toxicity, organism-based; conditions: in vivo
Mus musculus [12] = experiment: Antinociceptive activity in po dosed mouse by hot plate test; type: functional
Mus musculus [13] = experiment: Antinociceptive activity in late phase po dosed mouse by formalin test; type: functional
Rattus norvegicus = experiment: Antiinflammatory activity in po dosed rat persistent inflammatory pain model assessed as inhibition of carrageenan-induced mechanical hyperalgesia; type: functional
Mus musculus [14] = experiment: Neurotoxicity in mouse at 50 mg/kg, ip by rotarod test; type: toxicity, organism-based; set-up: dose 50 mg/kg, route intraperitoneal; conditions: in vivo
[15] = Half life in rat liver microsomes by LC/MS/MS; type: ADME, Microsome

Compound: Cc1ccccc1N1CCN(CCC(OC(N)=O)c2ccccc2)CC1 (single isomer, unassigned)
- pIC50 [1]: 6.83
- pIC50 [2]: 7.11

Compound: NC(=O)OC(CCN1CCN(c2ccccc2)CC1)c1ccc(Cl)cc1 (single isomer, unassigned)
- inhibition [3]: 84.6%
- ED50 (Mus musculus [4]): 2.1 mg/kg
- half-life [5]: 15 min
- inhibition [6]: 64.6%

Compound: NC(=O)OC(CCN1CCN(c2ccccc2O)CC1)c1ccccc1 (single isomer, unassigned)
- inhibition in vivo at 10 mg/kg (Mus musculus [7]): 37%

Compound: COc1ccc(N2CCN(CCC(OC(N)=O)c3ccccc3)CC2)cc1 (racemic)
- inhibition in vivo at 10 mg/kg (Mus musculus [7]): 72%
- TD50 [8]: 122 mg/kg
- pIC50 [1]: 5.70
- ED50 (Mus musculus [9]): 0.14 mg/kg
- half-life [5]: 124 min

Compound: COc1cccc(N2CCN(CCC(OC(N)=O)c3ccccc3)CC2)c1 (single isomer, unassigned)
- inhibition in vivo at 10 mg/kg (Mus musculus [10]): 55%

Compound: Cc1cccc(N2CCN(CCC(OC(N)=O)c3ccccc3)CC2)c1 (single isomer, unassigned)
- pIC50 [1]: 7.22
- pIC50 [2]: 7.03

Compound: COc1ccc(N2CCN(CCC(OC(N)=O)c3ccc(Cl)cc3)CC2)cc1 (single isomer, unassigned)
- inhibition in vivo at 10 mg/kg (Mus musculus [7]): 51%

Compound: NC(=O)OC(CCN1CCN(c2ccccc2F)CC1)c1ccccc1 (single isomer, unassigned)
- TD50 [11]: 44.7 mg/kg

Compound: CN1CC[C@]23c4c5ccc(O)c4O[C@H]2[C@@H](O)C=C[C@H]3[C@H]1C5 [MORPHINE]
- ED50 (Mus musculus [12]): 13.5 mg/kg
- ED50 (Mus musculus [13]): 9.15 mg/kg
- ED50 (Rattus norvegicus): 0.6 mg/kg
- ED50 (Mus musculus [4]): 5.57 mg/kg
- ED50 (Mus musculus [9]): 0.96 mg/kg

Compound: Cc1ccc(N2CCN(CCC(OC(N)=O)c3ccccc3)CC2)c(C)c1 (single isomer, unassigned)
- inhibition in vivo at 10 mg/kg (Mus musculus [7]): 34%

Compound: NC(=O)OC(CCN1CCN(c2ccc(Cl)c(C(F)(F)F)c2)CC1)c1ccccc1 (single isomer, unassigned)
- inhibition in vivo at 10 mg/kg (Mus musculus [7]): 52%

Compound: NC(=O)OC(CCN1CCN(c2ccccc2)CC1)c1ccccc1 (racemic)
- TD50 [8]: 124 mg/kg
- ED50 (Mus musculus [9]): 0.49 mg/kg
- half-life [5]: 19 min
- TD50 [11]: 52.3 mg/kg

Compound: NC(=O)OC(CCN1CCN(c2ccccc2Cl)CC1)c1ccccc1 (single isomer, unassigned)
- pIC50 [1]: 4.28
- pIC50 [2]: < 4.00

Compound: O[C@@H](CCN1CCN(c2ccccc2)CC1)c1ccccc1
- inhibition in vivo at 10 mg/kg (Mus musculus [10]): 66.7%
- pIC50 [1]: 6.31
- pIC50 [2]: 6.54

Compound: COc1ccc(C(CCN2CCN(c3ccc(OC)cc3)CC2)OC(N)=O)cc1 (configuration not stated)
- inhibition in vivo at 10 mg/kg (Mus musculus [7]): 53%

Compound: COc1ccc(N2CCN(CCC(OC(N)=O)c3ccc(C)cc3C)CC2)cc1 (single isomer, unassigned)
- inhibition in vivo at 10 mg/kg (Mus musculus [7]): 62%

Compound: NC(=O)OC(CCN1CCN(c2ccccc2)CC1)c1cccc([N+](=O)[O-])c1 (single isomer, unassigned)
- inhibition in vivo at 10 mg/kg (Mus musculus [10]): 100%
- inhibition in vivo at 10 mg/kg (Mus musculus [7]): 48%
- inhibition [3]: 86.4%
- inhibition [6]: 74.6%

Compound: Cc1ccc(N2CCN(CCC(OC(N)=O)c3ccccc3)CC2)cc1 (single isomer, unassigned)
- pIC50 [1]: 5.89
- pIC50 [2]: 6.43

Compound: NC(=O)OC(CCN1CCN(c2ccccc2)CC1)c1cccc(Cl)c1 (single isomer, unassigned)
- inhibition in vivo at 10 mg/kg (Mus musculus [10]): 100%
- inhibition in vivo at 10 mg/kg (Mus musculus [7]): 59%
- inhibition [3]: 93.7%
- inhibition [6]: 76.4%

Compound: NC(=O)OC(CCN1CCN(c2ccccc2)CC1)c1ccc(F)cc1 (configuration not stated)
- inhibition in vivo at 10 mg/kg (Mus musculus [10]): 99%
- TD50 [8]: 141 mg/kg
- inhibition [3]: 84.7%
- half-life [5]: 18 min
- Activity (Mus musculus [14]): Non-toxic
- inhibition [6]: 65.5%

Compound: NC(=O)OC(CCN1CCN(c2ccc(F)cc2)CC1)c1ccc(F)cc1 (single isomer, unassigned)
- inhibition in vivo at 10 mg/kg (Mus musculus [7]): 52%
- inhibition [3]: 93.9%
- inhibition [6]: 60.9%

Compound: CC(C)(C)c1ccc(C(CCN2CCN(c3ccccc3)CC2)OC(N)=O)cc1 (single isomer, unassigned)
- inhibition in vivo at 10 mg/kg (Mus musculus [7]): 62%
- inhibition [3]: 98.8%
- inhibition [6]: 44.4%

Compound: NC(=O)OC(CCN1CCN(c2ccc(C(F)(F)F)cc2[N+](=O)[O-])CC1)c1ccccc1 (single isomer, unassigned)
- inhibition in vivo at 10 mg/kg (Mus musculus [7]): 50%

Compound: Cc1ccc(C(CCN2CCN(c3ccccc3)CC2)OC(N)=O)cc1 (single isomer, unassigned)
- inhibition in vivo at 10 mg/kg (Mus musculus [10]): 100%
- inhibition [3]: 85.6%
- inhibition [6]: 59.6%

Compound: O=C(CCN1CCN(c2ccccc2)CC1)c1ccccc1
- inhibition in vivo at 10 mg/kg (Mus musculus [10]): 37.2%
- pIC50 [1]: 7.32
- pIC50 [2]: 5.97

Compound: NC(=O)OC(CCN1CCN(c2ccc(Cl)cc2)CC1)c1ccccc1 (single isomer, unassigned)
- inhibition in vivo at 10 mg/kg (Mus musculus [10]): 52%

Compound: NC(=O)O[C@@H](CCN1CCN(c2ccccc2)CC1)c1ccccc1
- inhibition in vivo at 10 mg/kg (Mus musculus [10]): 87.8%
- pIC50 [1]: 6.11
- pIC50 [2]: 5.99

Compound: COc1ccc(N2CCN(CCC(OC(N)=O)c3ccc(Cl)cc3Cl)CC2)cc1 (single isomer, unassigned)
- inhibition in vivo at 10 mg/kg (Mus musculus [7]): 16%

Compound: COc1cc(OC)cc(N2CCN(CCC(OC(N)=O)c3ccccc3)CC2)c1 (single isomer, unassigned)
- inhibition in vivo at 10 mg/kg (Mus musculus [7]): 13%

Compound: COc1ccc(N2CCN(CCC(OC(N)=O)c3ccc(C)c(C)c3)CC2)cc1 (single isomer, unassigned)
- inhibition in vivo at 10 mg/kg (Mus musculus [7]): 58%

Compound: NC(=O)OC(CCN1CCN(c2ccc([N+](=O)[O-])cc2)CC1)c1ccc(F)cc1 (single isomer, unassigned)
- inhibition in vivo at 10 mg/kg (Mus musculus [7]): 70%
- TD50 [8]: 97.8 mg/kg
- inhibition [3]: 29.6%
- inhibition [6]: 29.6%

Compound: NC(=O)OC(CCN1CCN(c2ccc(OC(F)(F)F)cc2)CC1)c1ccccc1 (single isomer, unassigned)
- inhibition in vivo at 10 mg/kg (Mus musculus [7]): 18%

Compound: COc1ccc(N2CCN(CCC(OC(N)=O)c3ccc(Cl)c(Cl)c3)CC2)cc1 (single isomer, unassigned)
- inhibition in vivo at 10 mg/kg (Mus musculus [7]): 61%

Compound: NC(=O)O[C@H](CCN1CCN(c2ccccc2)CC1)c1ccccc1
- half-life [15]: 8 min
- pIC50 [1]: 6.27
- ED50 (Mus musculus [9]): 0.18 mg/kg
- half-life [5]: 62 min
- pIC50 [2]: 7.21

Compound: COc1ccc(N2CCN(CCC(OC(N)=O)c3ccc(Cl)c(C(F)(F)F)c3)CC2)cc1 (single isomer, unassigned)
- inhibition in vivo at 10 mg/kg (Mus musculus [7]): 46%

Compound: O[C@H](CCN1CCN(c2ccccc2)CC1)c1ccccc1
- inhibition in vivo at 10 mg/kg (Mus musculus [10]): 70.1%
- pIC50 [1]: 6.76
- pIC50 [2]: 6.34

Compound: COc1ccc(C(CCN2CCN(c3ccccc3)CC2)OC(N)=O)cc1 (single isomer, unassigned)
- inhibition in vivo at 10 mg/kg (Mus musculus [10]): 100%
- inhibition in vivo at 10 mg/kg (Mus musculus [7]): 43%
- inhibition [3]: 82%
- Activity (Mus musculus [14]): Toxic
- inhibition [6]: 67.7%

Compound: Cc1cccc(C)c1N1CCN(CCC(OC(N)=O)c2ccccc2)CC1 (single isomer, unassigned)
- inhibition in vivo at 10 mg/kg (Mus musculus [7]): 48%

Compound: NC(=O)OC(CCN1CCN(c2ccc(C(F)(F)F)cc2)CC1)c1ccccc1 (single isomer, unassigned)
- pIC50 [1]: 5.14
- pIC50 [2]: 5.68

Compound: NC(=O)OC(CCN1CCN(c2ccc(O)cc2)CC1)c1ccc(F)cc1 (single isomer, unassigned)
- half-life [5]: 149 min

Compound: NC(=O)OC(CCN1CCN(c2ccccc2)CC1)c1ccc([N+](=O)[O-])cc1 (single isomer, unassigned)
- inhibition in vivo at 10 mg/kg (Mus musculus [10]): 100%
- inhibition in vivo at 10 mg/kg (Mus musculus [7]): 91.2%
- TD50 [8]: 53.4 mg/kg
- inhibition [3]: 88%
- Activity (Mus musculus [14]): Toxic
- inhibition [6]: 81.4%

Compound: COc1ccc(N2CCN(CCC(OC(N)=O)c3ccccc3)CC2)c(OC)c1 (single isomer, unassigned)
- inhibition in vivo at 10 mg/kg (Mus musculus [7]): 19%
